Results reported in publication PMC2928223 (Journal of molecular biology, 2009).

Biological target: T1, CgFMNAT (Nakaseomyces glabratus, UniProt Q6FNA9)
T1 sequence (Q6FNA9 1-304): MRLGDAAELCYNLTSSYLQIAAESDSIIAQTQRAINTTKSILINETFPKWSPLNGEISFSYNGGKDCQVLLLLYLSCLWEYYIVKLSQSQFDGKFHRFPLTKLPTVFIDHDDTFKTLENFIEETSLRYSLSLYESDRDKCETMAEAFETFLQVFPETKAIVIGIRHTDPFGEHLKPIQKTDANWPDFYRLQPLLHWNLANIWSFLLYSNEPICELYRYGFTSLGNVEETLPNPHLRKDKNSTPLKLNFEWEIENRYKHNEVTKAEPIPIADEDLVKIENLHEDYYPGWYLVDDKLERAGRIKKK

O=P(O)(O)OP(=O)(O)O [pyrophosphate]
X-ray crystal structure of product ternary complex (1.35 Å): the densities for both products FAD and pyrophosphate (PPi) are well defined
